From US20110009351A1, “SCREENING ASSAY TO IDENTIFY CORRECTORS OF PROTEIN TRAFFICKING DEFECTS” (Traffick Therepeutics Inc., priority 2007, published 2011)

Tests used:
Type in all cases: cell-based
wt CFTR [1] = molecular target: T1, wt CFTR (Homo sapiens, UniProt P13569); test: three stage ELISA of CFTR surface expression, BHK cells expressing wt CFTR; conditions: 10% glycerol, cells expressing wild-type CFTR
T1 construct: which was then ligated into full length pNUT-CFTR linearized using Hpa1 and Pml1; expressed in transfected cells
Procedure: (§1) Cells were screened for CFTR surface expression using a three stage ELISA system (Pierce Inc., USA). Briefly, BHK cells expressing 3HA-tagged ΔF508-CFTR were seeded in 96-well plates (Corning, USA) at 30,000 cells per well and incubated for 24 h at 37° C. Each well was treated with a test compound for 24 h, then cells were fixed in 4% paraformaldehyde solution and washed with PBS containing 0.1% bovine serum albumin and 0.05% tween-20. Cells were blocked for 1 h in solution containing 3% normal horse serum in PBS at room temperature. […] After washing four more times, the cells were exposed to 3,3′,5,5′ tetramethylbenzidine (Pierce Inc., USA) for 15 min, sulphuric acid (2M) was added, and absorbance was measured at 450 nm (Power-Wavex Bio-tek Instruments).
(§2) To determine if cell surface expression of CFTR could be quantified in a high-throughput screen using this assay, cells expressing tagged versions of wt or ΔF508-CFTR were seeded in 96-well plates, treated with 10% glycerol and monitored as light absorbance using an enzyme-linked assay system. As expected, untreated ΔF508-CFTR cells had low absorbance since they expressed little CFTR on their cell surface under control conditions (FIG. 3A).

wt CFTR [2] = molecular target: T1, wt CFTR; test: immunoblot and densitometry of mature band C, BHK cells expressing wt CFTR; conditions: 10% glycerol
Procedure: (§3) Cell lysates were quantitated by Bradford assay (BioRad) and separated by SDS-PAGE (6% polyacrylamide gels) and analyzed by Western blotting. Western blots were blocked using 5% skimmed milk in PBS, then probed overnight at 4° C. with a primary anti-CFTR antibody at a dilution of 1:1000 monoclonal mouse antibody (clone M3A7, Chemicon). The blots were washed four times in PBS before the addition of the secondary HRP-conjugated anti-mouse antibody, at a dilution of 1:5000 (Amersham) for one hour at room temperature. The blots were washed five times in PBS and probed for chemiluminescence (Pierce). All samples were run with equal protein loading as determined using the Bradford assay (Biorad). Densitometry of the immunoblots was performed using the ImageJ program (National Institutes of Health).

ΔF508-CFTR [3] = molecular target: T2, ΔF508-CFTR (Homo sapiens, UniProt P13569, DEL508-508); set-up: which was then ligated into full length pNUT-CFTR linearized using Hpa1 and Pml1; expressed in transfected cells
Procedure, shortened: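 BHK cells stably expressing 3HA-tagged ΔF508-CFTR (tags in fourth extracellular loop) treated with compound at 20 μM final for 24 h at 37° C. Surface ΔF508-CFTR measured on fixed, non-permeabilised cells by anti-HA/FITC immunofluorescence (488/510 nm), relative to untreated-well background; hits retested in duplicate, intrinsically fluorescent compounds excluded.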

ΔF508-CFTR [4] = molecular target: T2, ΔF508-CFTR; test: three stage ELISA of CFTR surface expression, BHK cells expressing ΔF508-CFTR; set-up: which was then ligated into full length pNUT-CFTR linearized using Hpa1 and Pml1; expressed in transfected cells; conditions: 10% glycerol or 1 mM sodium 4-phenylbutyrate, 24 hours
Procedure: as §1, §2

ΔF508-CFTR [5] = molecular target: T2, ΔF508-CFTR; test: immunoblot and densitometry of mature band C, BHK cells expressing ΔF508-CFTR; set-up: which was then ligated into full length pNUT-CFTR linearized using Hpa1 and Pml1; expressed in transfected cells; conditions: 10% glycerol, ΔF508-CFTR
Procedure: as §3
Total protein was quantified in cell lysates using the Bradford assay (BioRad, Hercules, Calif.), separated using SDS-PAGE (6% polyacrylamide gels), and analyzed by Western blotting as described previously (Robert et al., 2007). Western blots were blocked with 5% skimmed milk in PBS and probed overnight at 4° C. with a monoclonal primary anti-CFTR antibody (clone M3A7, Chemicon, Temecula, Calif.) diluted 1:1000. The blots were washed four times in PBS before adding the secondary HRP-conjugated anti-mouse antibody at a dilution of 1:5000 (Amersham, Piscataway, N.J.) for one hour at room temperature, then washed again five times in PBS and visualized using chemiluminescence (Pierce, Rockford, Ill.). The relative intensity of each CFTR glycoform (band B or band C) was estimated by densitometry using the ImageJ software and reported as a percentage of the total CFTR in the same lane (i.e. B+C).

F508del CFTR = molecular target: T3, F508del CFTR (Homo sapiens, UniProt P13569, DEL508-508); test: YFP fluorescence quenching functional assay (iodide influx), HEK293 cells with F508del CFTR and halide sensitive YFP; conditions: 10 μM, 24 h
T3 construct: expressed in transfected cells; host or cells: HEK293 Griptite cells stably expressing F508del CFTR, transiently transfected with halide-sensitive eYFP
Procedure, shortened: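 HEK293 Griptite cells stably expressing F508del CFTR, transiently transfected with halide-sensitive eYFP, treated 24 h with 10 μM compound in triplicate, then stimulated 20 min with 25 μM forskolin, 45 μM IBMX and 50 μM genistein. YFP quench after 50 mM iodide imaged 15 times over 40 s on 150-300 cells/well.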

ΔF508-CFTR [6] = molecular target: T2, ΔF508-CFTR; test: short-circuit current (Isc) across CFBE41o− monolayers in Ussing chambers; set-up: expressed in transfected cells; host or cells: CFBE41o- (ΔF508/ΔF508) transduced with ΔF508-CFTR, TranzVector lentivirus, provided by J. P. Clancy; conditions: 10 μM, 24 h
Procedure: Short-circuit current (Isc) was measured across monolayers in modified Ussing chambers. 1×10^6 CFBE41o^− cells were seeded onto 12-mm fibronectin-coated Snapwell inserts (Corning Incorporated, Life Sciences, New-York, N.Y.) and the apical medium was removed after 24 h. Transepithelial resistance was monitored using an EVOM epithelial voltohmmeter (World Precision Instruments, Sarasota, Fla.) and cells were used when the transepithelial resistance was 300-400 ohms·cm^2. In some experiments, F508del-CFBE41o^− monolayers were incubated at 29° C. or treated with glafenine at 37° C. for 24 h before being mounted in EasyMount chambers and voltage clamped using a VCCMC6 multichannel current-voltage clamp (Physiologic Instruments, San Diego, Calif.). The apical membrane conductance was functionally isolated by permeabilizing the basolateral membrane with 200 μg/ml nystatin and imposing an apical-to-basolateral Cl^− gradient. For these experiments the basolateral bathing solution contained (in mM) 1.2 NaCl, 115 Na-gluconate, 25 NaHCO3, 1.2 MgCl2, 4 CaCl2, 2.4, KH2PO4, 1.24 K2HPO4, 10 glucose (pH 7.4 with NaOH). The CaCl2 concentration was increased to 4 mM to compensate for the chelation of calcium by gluconate. The apical bathing solution contained (in mM) 115 NaCl, 25 NaHCO3, 1.2 MgCl2, 1.2 CaCl2, 2.4 KH2PO4, 1.24 K2HPO4, 10 mannitol (pH 7.4 with NaOH). […]

T2 sequence (P13569 with tags, fused parts or gaps DEL508-508): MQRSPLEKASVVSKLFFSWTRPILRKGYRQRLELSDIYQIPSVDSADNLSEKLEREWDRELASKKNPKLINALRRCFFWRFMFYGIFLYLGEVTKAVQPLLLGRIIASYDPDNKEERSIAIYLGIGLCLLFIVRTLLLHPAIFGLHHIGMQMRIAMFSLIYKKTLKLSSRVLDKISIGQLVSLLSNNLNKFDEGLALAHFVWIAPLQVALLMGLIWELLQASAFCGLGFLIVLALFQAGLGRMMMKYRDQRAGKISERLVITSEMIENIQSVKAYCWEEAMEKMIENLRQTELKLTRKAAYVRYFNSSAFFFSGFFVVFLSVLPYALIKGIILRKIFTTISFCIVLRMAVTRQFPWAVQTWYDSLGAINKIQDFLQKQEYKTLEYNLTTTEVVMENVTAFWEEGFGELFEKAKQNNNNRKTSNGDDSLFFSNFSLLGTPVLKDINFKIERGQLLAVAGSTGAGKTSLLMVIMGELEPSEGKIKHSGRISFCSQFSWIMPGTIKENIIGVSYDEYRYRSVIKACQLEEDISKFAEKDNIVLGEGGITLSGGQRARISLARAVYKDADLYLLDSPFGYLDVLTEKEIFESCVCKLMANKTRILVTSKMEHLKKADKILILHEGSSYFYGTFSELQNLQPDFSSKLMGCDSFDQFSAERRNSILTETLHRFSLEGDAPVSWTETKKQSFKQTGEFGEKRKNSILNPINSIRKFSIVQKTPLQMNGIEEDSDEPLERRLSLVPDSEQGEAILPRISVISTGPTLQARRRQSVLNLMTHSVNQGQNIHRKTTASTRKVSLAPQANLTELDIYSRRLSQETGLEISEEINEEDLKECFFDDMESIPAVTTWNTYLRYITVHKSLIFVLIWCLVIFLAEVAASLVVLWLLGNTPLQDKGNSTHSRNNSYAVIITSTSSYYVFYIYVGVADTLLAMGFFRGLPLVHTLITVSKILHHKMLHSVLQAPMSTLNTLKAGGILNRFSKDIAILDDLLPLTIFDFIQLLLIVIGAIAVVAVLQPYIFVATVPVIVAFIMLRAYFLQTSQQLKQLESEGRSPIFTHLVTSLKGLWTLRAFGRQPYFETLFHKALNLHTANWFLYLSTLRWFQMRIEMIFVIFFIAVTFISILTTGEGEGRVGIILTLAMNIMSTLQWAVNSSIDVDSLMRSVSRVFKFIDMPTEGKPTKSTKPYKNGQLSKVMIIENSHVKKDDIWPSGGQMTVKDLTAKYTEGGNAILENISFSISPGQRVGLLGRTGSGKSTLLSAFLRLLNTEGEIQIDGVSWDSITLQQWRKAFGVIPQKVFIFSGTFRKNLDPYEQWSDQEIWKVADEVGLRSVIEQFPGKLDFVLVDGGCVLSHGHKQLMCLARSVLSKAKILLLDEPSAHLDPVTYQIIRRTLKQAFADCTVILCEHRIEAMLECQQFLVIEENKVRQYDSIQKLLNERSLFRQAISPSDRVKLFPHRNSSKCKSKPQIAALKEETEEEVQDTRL
T1 sequence (P13569 whole entry): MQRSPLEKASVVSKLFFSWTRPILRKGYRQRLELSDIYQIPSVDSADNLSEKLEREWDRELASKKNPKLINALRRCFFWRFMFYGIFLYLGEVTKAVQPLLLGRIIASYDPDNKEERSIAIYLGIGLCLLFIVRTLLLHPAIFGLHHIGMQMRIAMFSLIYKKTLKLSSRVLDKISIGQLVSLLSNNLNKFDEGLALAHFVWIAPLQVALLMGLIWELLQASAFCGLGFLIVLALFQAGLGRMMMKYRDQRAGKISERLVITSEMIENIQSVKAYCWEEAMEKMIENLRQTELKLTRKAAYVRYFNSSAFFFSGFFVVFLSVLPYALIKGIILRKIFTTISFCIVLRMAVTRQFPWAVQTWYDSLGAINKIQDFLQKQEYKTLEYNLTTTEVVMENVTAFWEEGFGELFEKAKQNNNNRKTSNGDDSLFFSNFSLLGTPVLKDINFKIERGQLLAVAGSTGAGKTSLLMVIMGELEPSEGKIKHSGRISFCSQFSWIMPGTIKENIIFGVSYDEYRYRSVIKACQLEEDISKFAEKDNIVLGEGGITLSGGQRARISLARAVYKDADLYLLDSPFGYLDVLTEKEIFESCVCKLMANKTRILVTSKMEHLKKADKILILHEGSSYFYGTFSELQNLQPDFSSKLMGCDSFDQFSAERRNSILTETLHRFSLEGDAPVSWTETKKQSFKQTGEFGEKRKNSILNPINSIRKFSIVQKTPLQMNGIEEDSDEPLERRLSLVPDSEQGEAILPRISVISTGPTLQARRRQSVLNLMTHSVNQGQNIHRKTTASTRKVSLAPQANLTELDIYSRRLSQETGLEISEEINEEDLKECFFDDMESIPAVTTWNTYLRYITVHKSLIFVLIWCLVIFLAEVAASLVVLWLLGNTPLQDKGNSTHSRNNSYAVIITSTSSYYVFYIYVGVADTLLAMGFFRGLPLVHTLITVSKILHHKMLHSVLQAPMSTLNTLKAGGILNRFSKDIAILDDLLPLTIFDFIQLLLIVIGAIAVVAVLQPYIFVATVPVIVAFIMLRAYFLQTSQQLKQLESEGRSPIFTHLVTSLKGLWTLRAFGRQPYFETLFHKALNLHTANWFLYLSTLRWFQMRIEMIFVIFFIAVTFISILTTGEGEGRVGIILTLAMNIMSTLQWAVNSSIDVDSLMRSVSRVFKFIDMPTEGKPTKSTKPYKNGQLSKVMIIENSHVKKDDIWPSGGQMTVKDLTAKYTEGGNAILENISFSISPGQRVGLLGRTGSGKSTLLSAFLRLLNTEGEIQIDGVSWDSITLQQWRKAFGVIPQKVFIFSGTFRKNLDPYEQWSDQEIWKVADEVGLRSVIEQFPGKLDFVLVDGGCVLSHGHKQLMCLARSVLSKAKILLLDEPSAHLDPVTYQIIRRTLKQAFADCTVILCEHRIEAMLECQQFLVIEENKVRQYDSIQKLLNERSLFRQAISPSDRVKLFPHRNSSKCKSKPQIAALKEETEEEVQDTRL
T3 sequence (P13569 with tags, fused parts or gaps DEL508-508): as the sequence (P13569 with tags, fused parts or gaps DEL508-508) above

Row | SMILES | increase of plasma membrane signal (wt CFTR [1]) [fold] | increase of band C by densitometry (wt CFTR [2]) [fold] | fluorescence increase in comparison with the untreated cells (ΔF508-CFTR [3]; 10% glycerol, ΔF508-CFTR cells) [fold] | plasma membrane signal (absorbance), words (ΔF508-CFTR [4]) | increase of band C by densitometry (ΔF508-CFTR [5]) [fold] | functional correction in YFP quenching assay (F508del CFTR) | ΔF508-CFTR surface expression increase, normalized to BHK cells expressing wild-type CFTR (ΔF508-CFTR [3]; 10 μM, 24 h, compared with vehicle alone) [%] | forskolin+genistein-stimulated Isc (ΔF508-CFTR [6])
1 | OCC(O)CO [glycerol] | 2.5 | 1.5 | 2.7 | increased the plasma membrane signal | 37 |  |  | 
2 | COc1ccc(S(=O)(=O)N2CCN(C(C)c3nc(OC4CCCCC4)c4ccccc4n3)CC2)cc1 (centres unmarked) [VRT325] |  |  |  |  |  | somewhat larger YFP-quenching response | 36 | not different from vehicle controls
